Assay results published in PMC11190223, “Identification of sulfakinin receptor regulating feeding behavior and hemolymph trehalose homeostasis in the silkworm, Bombyx mori” (Scientific Reports, 2024).
pEC50: −log10 of the molar value. Where no end group is shown, it is not given here. [ ]: non-standard residue; d: D form. sY = N[C@@H](Cc1ccc(OS(=O)(=O)O)cc1)C(=O)O

Legend:
BNGR-A9 [1] = assay: ERK1/2 phosphorylation (western blot), BNGR-A9-expressing HEK293 cells; assay type: cell-based, Bombyx mori
BNGR-A9 [2] = assay: Receptor internalization assay, BNGR-A9-EGFP; assay type: cell-based, Bombyx mori; conditions: BNGR-A9-EGFP stably expressing HEK293 cells; 100 nM, 30 min; fluorescence microscopy
Excerpt: (§1) The entire coding region of BNGR-A9 (NM_001134272.1) was obtained by PCR and subsequently cloned into pEGFP-N1 and pCMV-Flag vectors using the primers listed in Table S1. The Flag-BNGR-A9 construct was generated for functional assays, including CRE-luciferase, calcium mobilization, and ERK phosphorylation assays, while BNGR-A9-EGFP was created for receptor visualization purposes. Additionally, for expression in the BmN cell system, the BNGR-A9 gene was inserted into the pIZT/V5-His vector. All constructs were validated by DNA sequencing.
BNGR-A9-EGFP stably expressing HEK293 cells were seeded onto coverslips and incubated overnight under normal growth conditions. Subsequently, the cells were starved with fresh serum-free DMEM for 1 h and treated with either 100 nM BmsSK or BmnsSK. After a 30-min incubation period, the cells were washed three times with ice-cold PBS and fixed with 3% paraformaldehyde for 10 min at room temperature. The images were taken by a fluorescence microscopy (Leica, Germany).

[3] = tested on: ERK phosphorylation in silkworm brains; assay: ERK phosphorylation (western blot), silkworm larval brains ex vivo; parameters: species or system Bombyx mori
Description: HEK293 cells with Flag-BNGR-A9 were exposed to 100 nM BmsSK for different durations and then lysed using RIPA buffer (Beyotime, China). For ex vivo assays, brains from 5th instar silkworm larvae were treated with BmsSK (100 nM) for 1, 2, or 8 h, either with a pre-treatment of Gαq inhibitor FR900359 for 30 min or without it. After treatment, samples were lysed, homogenized, and their protein concentrations were determined with a BCA protein kit (Takara, Japan). For western blot analysis, equal amounts of protein lysate were used. Protein expression was analyzed using specific primary antibodies: rabbit monoclonal antibodies for total and phosphorylated ERK from Cell Signaling Technology (MA, USA).

BNGR-A9 [4] = assay: CRE-driven luciferase reporter assay, BNGR-A9; assay type: cell-based, Bombyx mori; conditions: 4 h, at least three independent experiments; for pEC50: dose-response
Excerpt: as §1
HEK293 cells were cultured with Dulbecco’s Modified Eagle’s Medium (Gibco, NY, USA) supplied with 10% Fetal bovine serum (Gibco, NY, USA) in a 37 °C humidified incubator containing 5% CO2. BmN cells were maintained in TC 100 insect medium (AppliChem, Darmstadt, Germany) supplied with 10% Fetal bovine serum in a 28 °C incubator. Both HEK293 and BmN cells were transfected with X-tremeGENE (Roche, Mannheim, Germany) according to the manufacturer’s instruction.
HEK293 and BmN cells were transfected with the different Bombyx receptors (Flag-BNGR-A9, -A24, -A32, or A33 for HEK293 cells, and pIZT-BNGR-A9, -A24, -A32, or A33 for BmN cells) along with the corresponding CRE-reporter plasmid. When cell confluence reached 90–95%, they were treated with various concentrations of Bombyx mori neuropeptides, with or without forskolin. Following a 4-h incubation period, cells were lysed, and luciferase activities were determined using a firefly luciferase kit (Beyotime, Shanghai, China).
Data analysis was conducted using GraphPad Prism (San Diego, CA), with results presented as mean ± SEM. Statistical significance was assessed through Student’s t-test or two-way ANOVA with multiple comparisons, with p values below 0.05 denoted as significant (*p < 0.05, **p < 0.01, ***p < 0.001). Dose–response curves were generated via non-linear curve fitting. Adobe Photoshop was used to process images, ensuring uniform brightness and contrast settings across all conditions. All images and data provided represent findings from a minimum of three independent experiments.

BNGR-A9 [5] = assay: IP3 ELISA in BNGR-A9-expressing HEK293 cells; assay type: cell-based, Bombyx mori; conditions: 1 μM, 1 h
Description: Figure 6 Bombyx sulfated-sulfakinin mediated activation of BNGR-A9 via Gαq signaling pathway. (A and B) Effects of Gαq inhibitor FR900359 (1 μM) on the CRE-driven luciferase activities in BNGR-A9 expressing HEK293 (A) and BmN (B) cells. BNGR-A9 stable transfected cells were pretreated with FR900359 (1 μM) for 30 min and challenged with 100 nM BmsSK for 4 h. (C) Accumulation of IP3 in HEK293 cells expressing BNGR-A9 in response to Bombyx neuropeptides was assessed. Cells were pre-treated with serum-free DMEM for 1 h, followed by stimulation with 1 μM of the indicated Bombyx neuropeptides for 1 h. The level of IP3 in the supernatant was then determined using the IP3 immunoassay detection kit. (D, E) Effects of Gαq/PLC inhibitors on Flag-BNGR-A9 mediated increase of intracellular Ca^2+ level. Flag-BNGR-A9 expressing HEK293 (D) and BmN (E) cells were pretreated with Gαq inhibitorFR900359 (1 μM), U73122 (5 μM) for 30 min, and incubated with Fura-2 AM for 30 min, followed by challenging with 100 nM BmsSK. (F, G) effects of protein kinase A (PKA) inhibitor KT5720 on BmsSK initiated Ca^2+ in Flag-BNGR-A9-expressing cells. […] After 30 min incubation with Fura-2 AM, the cells were treated with 100 nM BmsSK, and detected with a fluorescence spectrometer. […] Data were analyzed by using a Student’s t-test (*p < 0.05; **p < 0.01). […]

BmsSK: Bombyx mori sulfated-sulfakinin, synthetic; sulfated version of GDDTFDD^8YGHLRF-NH2 (GDDTFDD[sY]GHLRF-NH2; N-terminus assumed; SMILES CC(C)C[C@H](NC(=O)[C@H](Cc1c[nH]cn1)NC(=O)CNC(=O)[C@H](Cc1ccc(OS(=O)(=O)O)cc1)NC(=O)[C@H](CC(=O)O)NC(=O)[C@H](CC(=O)O)NC(=O)[C@H](Cc1ccccc1)NC(=O)[C@@H](NC(=O)[C@H](CC(=O)O)NC(=O)[C@H](CC(=O)O)NC(=O)CN)[C@@H](C)O)C(=O)N[C@@H](CCCNC(=N)N)C(=O)N[C@@H](Cc1ccccc1)C(N)=O)
ERK1/2 phosphorylation (BNGR-A9 [1]; HEK293 cells expressing BNGR-A9, serum-starved 1 h): quick and dose-dependent increase in ERK1/2 phosphorylation
Time of peak ERK1/2 phosphorylation (BNGR-A9 [1]; HEK293 cells, 10 nM BmsSK time course (Fig. 7A)): 5 min
Receptor internalization (BNGR-A9 [2]): rapid and significant receptor redistribution within the cytoplasm
Time of peak ERK1/2 phosphorylation ([3]; 5th instar silkworm brains, 100 nM BmsSK for 1, 2 or 8 h): 2 h
ERK1/2 phosphorylation ([3]; silkworm brains, 100 nM BmsSK): quick and dose-dependent increase in ERK1/2 phosphorylation
pEC50 (BNGR-A9 [4]; BmN cells stably expressing BNGR-A9): 7.22
Activation of BNGR-A9 (CRE-driven luciferase activity) (BNGR-A9 [4]; HEK293 and BmN cells, 1 μM peptide, with or without forskolin (5 μM)): could activate BNGR-A9
pEC50 (BNGR-A9 [4]; HEK293 cells stably expressing BNGR-A9): 7.13
Intracellular IP3 level (BNGR-A9 [5]): significant elevation
